Our source for the Ki values is BindingDB's records for doi:10.1016/0028-3908(96)84644-2 (Abbott Laboratories, 1996).

Broadly, the Ki is the dissociation constant of the complex between target and ligand, obtained from inhibition or displacement.

SMILES strings stand for the structures. “And” between values parts separate entries of the source, which are not always exact repeats. Equal entries are not always repeated.

Some targets named below: Mu-type opioid receptor (Rattus norvegicus, UniProt P33535); Beta-nerve growth factor (Homo sapiens, UniProt P01138); D(2) dopamine receptor (Homo sapiens, UniProt P14416); GLRA1 protein (Homo sapiens, UniProt Q14C71); Protein kinase C (Drosophila melanogaster, UniProt P13678); Neuromedin-K receptor (Homo sapiens, UniProt P29371); Apamin (Apis mellifera, UniProt P01500); Substance-K receptor (Bos taurus, UniProt P05363); Somatostatin (Rattus norvegicus, UniProt P60042); Adenosine receptor A1 (Homo sapiens, UniProt P30542); Glutamate receptor 3 (Homo sapiens, UniProt P42263); Substance-P receptor (Homo sapiens, UniProt P25103); Adenosine receptor A2a (Homo sapiens, UniProt P29274).

The target in test [1] is Glutamate receptor ionotropic, NMDA 1 (Rattus norvegicus, UniProt P35439).
For test [2], the target named is Gamma-aminobutyric acid receptor subunit alpha-1 (Homo sapiens, UniProt P14867).
Test [3] deals with 5-hydroxytryptamine receptor 2C (Homo sapiens, UniProt P28335).
Test [4] addresses Chloride channel protein 1 (Homo sapiens, UniProt P35523).
The target in test [5] is Beta-2 adrenergic receptor (Mus musculus, UniProt P18762).
The target of test [6] is 5-hydroxytryptamine receptor 1A/1B/1D/2C (Homo sapiens, UniProt P08908+P28221+P28222+P28335).
Test [7] addresses Sodium-dependent noradrenaline transporter (Homo sapiens, UniProt P23975).
In test [8] the target is Gamma-aminobutyric acid type B receptor subunit 1 (Homo sapiens, UniProt Q9UBS5).
Test [9] addresses Voltage-dependent N-type calcium channel subunit alpha-1B (Rattus norvegicus, UniProt Q02294).
In test [10] the target is 5-hydroxytryptamine receptor 1B (Canis lupus familiaris, UniProt P79250).
Test [11] deals with Acetylcholine receptor subunit alpha (Rattus norvegicus, UniProt P25108).
Chain of Acetylcholine receptor subunit alpha (P25108 whole entry): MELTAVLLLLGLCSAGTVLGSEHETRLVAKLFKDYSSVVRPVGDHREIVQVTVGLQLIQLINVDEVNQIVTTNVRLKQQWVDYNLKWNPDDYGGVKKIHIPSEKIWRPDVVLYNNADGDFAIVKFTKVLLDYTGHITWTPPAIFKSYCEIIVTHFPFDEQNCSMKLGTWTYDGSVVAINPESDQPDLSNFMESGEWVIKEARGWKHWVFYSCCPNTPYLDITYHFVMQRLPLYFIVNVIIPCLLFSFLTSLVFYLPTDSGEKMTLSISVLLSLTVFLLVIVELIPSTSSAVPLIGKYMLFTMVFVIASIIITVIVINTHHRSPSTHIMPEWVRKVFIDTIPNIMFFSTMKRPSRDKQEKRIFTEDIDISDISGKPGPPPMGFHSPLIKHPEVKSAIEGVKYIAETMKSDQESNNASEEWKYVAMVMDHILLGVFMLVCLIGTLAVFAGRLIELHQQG
Test [12] addresses Voltage-dependent T-type calcium channel subunit alpha-1H (Homo sapiens, UniProt O95180).
Test [13] has as its target ATP-sensitive inward rectifier potassium channel 11 (Homo sapiens, UniProt Q14654).
Test [14] has as its target Neuronal acetylcholine receptor subunit alpha-7 (Homo sapiens, UniProt P36544).
Test [15] deals with Adrenergic alpha2 receptor (Mesocricetus auratus, UniProt Q60533).
For test [16], the target named is 5-hydroxytryptamine receptor 1A (Homo sapiens, UniProt P08908).
Test [17] has as its target Sodium channel protein type 2 subunit alpha (Homo sapiens, UniProt Q99250).
The target of test [18] is Solute carrier family 22 member 1 (Rattus norvegicus, UniProt Q63089).
For test [19], the target named is Sodium-dependent dopamine transporter (Homo sapiens, UniProt Q01959).
Test [20] concerns the target Kappa-type opioid receptor (Homo sapiens, UniProt P41145).
The target of test [21] is Gamma-aminobutyric acid type B receptor subunit 1 (UniProt Q9Z0U4).
For test [22], the target named is Putative choline uptake ABC transporter permease protein (Rhizobium meliloti (strain 1021), UniProt Q92V96).
Chain of Putative choline uptake ABC transporter permease protein (Q92V96 whole entry): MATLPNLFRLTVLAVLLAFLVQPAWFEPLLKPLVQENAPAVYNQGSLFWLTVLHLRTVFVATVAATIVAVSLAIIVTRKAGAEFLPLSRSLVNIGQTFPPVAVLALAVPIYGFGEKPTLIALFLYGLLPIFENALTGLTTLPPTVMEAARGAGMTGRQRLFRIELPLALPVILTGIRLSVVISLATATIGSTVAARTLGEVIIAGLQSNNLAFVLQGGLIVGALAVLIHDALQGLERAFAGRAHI
The target of test [23] is Potassium voltage-gated channel subfamily A member 1 (Homo sapiens, UniProt Q09470).
The target in test [24] is Delta-type opioid receptor (Homo sapiens, UniProt P41143).
The target in test [25] is Glutamate receptor ionotropic, kainate 2 (Homo sapiens, UniProt Q13002).
The target of test [26] is Neuronal acetylcholine receptor subunit alpha-4 (Homo sapiens, UniProt P43681).

Chain of Neuronal acetylcholine receptor subunit alpha-7 (P36544 whole entry): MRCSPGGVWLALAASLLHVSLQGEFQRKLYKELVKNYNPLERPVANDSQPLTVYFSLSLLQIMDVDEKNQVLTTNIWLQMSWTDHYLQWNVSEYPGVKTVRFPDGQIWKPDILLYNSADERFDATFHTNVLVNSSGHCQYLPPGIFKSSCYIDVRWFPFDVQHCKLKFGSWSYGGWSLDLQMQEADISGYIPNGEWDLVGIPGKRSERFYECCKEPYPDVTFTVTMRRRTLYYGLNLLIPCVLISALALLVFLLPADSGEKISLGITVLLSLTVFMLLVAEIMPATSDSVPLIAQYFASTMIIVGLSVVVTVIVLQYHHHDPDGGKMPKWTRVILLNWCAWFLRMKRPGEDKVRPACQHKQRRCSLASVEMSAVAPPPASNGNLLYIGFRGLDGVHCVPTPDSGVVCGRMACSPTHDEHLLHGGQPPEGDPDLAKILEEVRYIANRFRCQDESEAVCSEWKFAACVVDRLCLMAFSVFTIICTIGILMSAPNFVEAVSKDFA
Chain of Sodium channel protein type 2 subunit alpha (Q99250 whole entry): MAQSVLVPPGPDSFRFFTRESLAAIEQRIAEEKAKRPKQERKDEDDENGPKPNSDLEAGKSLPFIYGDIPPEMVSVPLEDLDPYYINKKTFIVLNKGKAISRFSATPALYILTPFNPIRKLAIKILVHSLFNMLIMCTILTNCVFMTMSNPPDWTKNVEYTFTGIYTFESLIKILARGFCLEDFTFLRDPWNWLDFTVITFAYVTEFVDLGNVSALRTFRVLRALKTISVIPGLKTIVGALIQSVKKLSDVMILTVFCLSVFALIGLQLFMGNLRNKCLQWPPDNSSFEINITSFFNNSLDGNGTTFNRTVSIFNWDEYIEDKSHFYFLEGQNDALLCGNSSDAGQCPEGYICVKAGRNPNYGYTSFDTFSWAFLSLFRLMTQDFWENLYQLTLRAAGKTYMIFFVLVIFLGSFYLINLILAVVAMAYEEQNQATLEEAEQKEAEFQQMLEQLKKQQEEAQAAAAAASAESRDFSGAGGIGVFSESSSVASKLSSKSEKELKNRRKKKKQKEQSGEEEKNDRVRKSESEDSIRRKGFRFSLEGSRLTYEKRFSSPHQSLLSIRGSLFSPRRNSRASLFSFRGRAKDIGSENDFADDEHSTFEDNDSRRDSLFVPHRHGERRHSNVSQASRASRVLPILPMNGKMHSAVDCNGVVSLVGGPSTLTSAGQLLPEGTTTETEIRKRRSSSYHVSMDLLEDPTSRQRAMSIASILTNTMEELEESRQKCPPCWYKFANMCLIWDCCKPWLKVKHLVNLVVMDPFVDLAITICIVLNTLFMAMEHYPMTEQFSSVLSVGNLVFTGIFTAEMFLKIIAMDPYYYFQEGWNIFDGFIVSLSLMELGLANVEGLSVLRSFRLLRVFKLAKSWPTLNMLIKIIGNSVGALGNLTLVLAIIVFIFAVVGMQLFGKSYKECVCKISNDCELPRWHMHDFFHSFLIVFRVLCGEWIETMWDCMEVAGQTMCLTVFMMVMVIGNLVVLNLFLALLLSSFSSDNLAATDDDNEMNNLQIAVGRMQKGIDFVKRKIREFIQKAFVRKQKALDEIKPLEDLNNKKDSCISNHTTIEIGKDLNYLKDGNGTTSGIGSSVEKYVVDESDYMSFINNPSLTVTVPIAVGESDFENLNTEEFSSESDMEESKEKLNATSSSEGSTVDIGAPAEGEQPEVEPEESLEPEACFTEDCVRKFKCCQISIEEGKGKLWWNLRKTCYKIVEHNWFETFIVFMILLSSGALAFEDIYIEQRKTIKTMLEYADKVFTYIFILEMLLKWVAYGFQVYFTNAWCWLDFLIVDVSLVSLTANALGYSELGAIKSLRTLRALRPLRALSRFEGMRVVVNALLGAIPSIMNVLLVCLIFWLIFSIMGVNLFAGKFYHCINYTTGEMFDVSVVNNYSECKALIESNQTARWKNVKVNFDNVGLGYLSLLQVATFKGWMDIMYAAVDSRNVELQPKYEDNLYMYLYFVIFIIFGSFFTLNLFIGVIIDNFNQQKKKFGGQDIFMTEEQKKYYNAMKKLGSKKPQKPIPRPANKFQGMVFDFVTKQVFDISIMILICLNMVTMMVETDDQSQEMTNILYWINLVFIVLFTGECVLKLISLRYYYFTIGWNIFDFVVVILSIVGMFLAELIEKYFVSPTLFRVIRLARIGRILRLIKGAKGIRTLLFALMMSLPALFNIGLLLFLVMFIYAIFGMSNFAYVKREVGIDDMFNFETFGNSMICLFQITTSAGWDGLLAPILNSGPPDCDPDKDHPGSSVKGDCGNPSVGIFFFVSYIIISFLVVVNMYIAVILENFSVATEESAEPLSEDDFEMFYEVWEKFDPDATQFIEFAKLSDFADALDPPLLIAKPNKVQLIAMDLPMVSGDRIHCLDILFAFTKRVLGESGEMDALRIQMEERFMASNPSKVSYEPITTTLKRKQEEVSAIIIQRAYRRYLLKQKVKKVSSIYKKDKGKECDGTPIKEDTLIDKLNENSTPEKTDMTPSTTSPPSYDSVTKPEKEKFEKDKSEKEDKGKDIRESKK
Chain of GLRA1 protein (Q14C71 whole entry): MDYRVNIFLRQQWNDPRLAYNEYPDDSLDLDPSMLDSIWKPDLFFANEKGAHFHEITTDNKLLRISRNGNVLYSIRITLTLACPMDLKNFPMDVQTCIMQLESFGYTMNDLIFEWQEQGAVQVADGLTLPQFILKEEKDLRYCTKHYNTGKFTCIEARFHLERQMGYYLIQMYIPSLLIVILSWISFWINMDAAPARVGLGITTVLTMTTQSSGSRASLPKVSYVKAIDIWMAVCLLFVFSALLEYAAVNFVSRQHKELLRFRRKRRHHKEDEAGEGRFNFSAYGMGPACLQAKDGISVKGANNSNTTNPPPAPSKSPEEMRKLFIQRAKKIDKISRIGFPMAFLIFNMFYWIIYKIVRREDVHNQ
Chain of Chloride channel protein 1 (P35523 whole entry): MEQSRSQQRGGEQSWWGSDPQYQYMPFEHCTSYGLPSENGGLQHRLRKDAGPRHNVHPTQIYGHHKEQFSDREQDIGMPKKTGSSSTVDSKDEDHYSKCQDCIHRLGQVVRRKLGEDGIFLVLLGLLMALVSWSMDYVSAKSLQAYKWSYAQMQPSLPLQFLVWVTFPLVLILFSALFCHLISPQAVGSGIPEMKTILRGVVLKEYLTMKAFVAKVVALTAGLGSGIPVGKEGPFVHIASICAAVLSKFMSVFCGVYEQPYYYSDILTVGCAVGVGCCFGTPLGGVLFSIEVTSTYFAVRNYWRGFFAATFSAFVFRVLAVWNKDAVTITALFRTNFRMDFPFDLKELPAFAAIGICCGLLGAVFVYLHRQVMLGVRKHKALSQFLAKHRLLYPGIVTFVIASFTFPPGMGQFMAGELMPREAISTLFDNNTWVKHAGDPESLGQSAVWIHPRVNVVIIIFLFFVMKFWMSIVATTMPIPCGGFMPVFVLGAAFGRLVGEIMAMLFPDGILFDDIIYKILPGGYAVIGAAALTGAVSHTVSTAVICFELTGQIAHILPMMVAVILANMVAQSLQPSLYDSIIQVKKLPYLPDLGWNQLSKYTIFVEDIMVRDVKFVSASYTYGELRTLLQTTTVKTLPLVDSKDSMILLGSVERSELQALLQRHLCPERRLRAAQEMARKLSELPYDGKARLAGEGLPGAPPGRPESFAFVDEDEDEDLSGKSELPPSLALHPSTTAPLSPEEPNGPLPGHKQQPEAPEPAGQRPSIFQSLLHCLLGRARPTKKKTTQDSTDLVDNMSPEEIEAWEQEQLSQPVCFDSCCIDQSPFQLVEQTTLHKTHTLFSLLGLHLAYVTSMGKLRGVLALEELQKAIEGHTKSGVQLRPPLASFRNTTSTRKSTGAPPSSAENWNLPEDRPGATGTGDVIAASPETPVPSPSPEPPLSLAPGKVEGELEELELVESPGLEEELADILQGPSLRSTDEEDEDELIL
Chain of Adenosine receptor A2a (P29274 whole entry): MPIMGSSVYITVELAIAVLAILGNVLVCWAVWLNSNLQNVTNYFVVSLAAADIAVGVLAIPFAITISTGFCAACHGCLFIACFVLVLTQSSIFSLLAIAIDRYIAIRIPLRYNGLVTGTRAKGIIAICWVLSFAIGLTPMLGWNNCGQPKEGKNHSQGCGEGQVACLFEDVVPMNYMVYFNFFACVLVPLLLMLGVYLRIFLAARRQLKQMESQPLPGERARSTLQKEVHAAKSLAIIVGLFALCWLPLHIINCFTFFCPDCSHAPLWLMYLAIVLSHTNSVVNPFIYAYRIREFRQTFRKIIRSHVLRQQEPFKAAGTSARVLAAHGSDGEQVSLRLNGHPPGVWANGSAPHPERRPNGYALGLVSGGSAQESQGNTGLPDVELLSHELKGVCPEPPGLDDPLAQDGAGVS

For `c1cncc(OC[C@@H]2CCN2)c1`, the Ki (in [1]; on Mu-type opioid receptor; at Beta-nerve growth factor; in test [2]; in [3]; in [4]) was greater than 10 µM in each case. The inhibition constant Ki (in test [5]; in test [6]; in test [7]; on D(2) dopamine receptor; in [8]; in [9]) was greater than 10 µM in each case. For the same compound, the inhibition constant (Ki) on GLRA1 protein was greater than 10 µM; on Protein kinase C, greater than 10 µM; on Neuromedin-K receptor it was greater than 10 µM; in test [10], greater than 10 µM; in test [11], 0.384 µM and 0.314 µM; on Apamin it was greater than 10 µM. Further, the Ki was greater than 10 µM in test [12]; greater than 10 µM in test [13]; greater than 10 µM at Substance-K receptor; 1.27 µM and 0.148 µM in [14]; greater than 10 µM on Somatostatin; greater than 10 µM in test [15]. Moreover, the Ki (at Adenosine receptor A1; in [16]; in [17]; in test [18]; in [19]; in test [20]) was greater than 10 µM each time. Besides, the Ki (in test [21]; in test [22]; at Glutamate receptor 3; in test [23]; in test [24]; on Substance-P receptor) was greater than 10 µM in each case. Besides, the Ki at Adenosine receptor A2a is greater than 10 µM; in [25], greater than 10 µM; in test [26], 0.04 nM.

`CN1CCC[C@H]1c1cccnc1` [(R,S)-nicotine] returned a Ki in test [11] greater than 10 µM.
